Laboratory results taken from ChEMBL document CHEMBL3137381, “MMV Box Onchocerca lienalis screening set”.

What was measured:
Assay type in all cases: functional
[1] = tested on: Onchocerca lienalis; test: MMV: Percent motility assay at a compound concentration of 1.9e-7 M. Activity score legend: 3: Active, 2: Moderately active; 1: Inactive, 0: Toxic; details: at 0.19 µM
[2] = tested on: Onchocerca lienalis; test: MMV: Percent motility assay at a compound concentration of 3.1e-6 M. Activity score legend: 3: Active, 2: Moderately active; 1: Inactive, 0: Toxic; details: at 3.1 µM
[3] = tested on: Onchocerca lienalis; test: MMV: Percent motility assay at a compound concentration of 7.8e-7 M. Activity score legend: 3: Active, 2: Moderately active; 1: Inactive, 0: Toxic; details: at 0.78 µM
[4] = tested on: Onchocerca lienalis; test: MMV: Percent motility assay at a compound concentration of 1.25e-5 M. Activity score legend: 3: Active, 2: Moderately active; 1: Inactive, 0: Toxic; details: at 12.5 µM

Compound	Motility [1] [%]	Motility [2] [%]	Motility [3] [%]	Motility [4] [%]
COc1ccc2c(c1)C1(Nc3ccccc3-c3nc4ccccc4n31)C(=O)N2 (stereo not given)	100	100	100	100
COc1cccc(Cn2c(Oc3ccccc3)nc3c2c(=O)n(C)c(=O)n3C)c1	100	100	100	100
CCOc1cc(CNC(C)C(O)c2ccccc2)cc(Cl)c1OCC (stereo not given)	100	100	100	100
CCOc1c(Cl)cc(CNCC(O)c2ccccc2)cc1OC (stereo not given)	100	100	100	100
OC(CNCC1CCCO1)Cn1c2ccc(Cl)cc2c2cc(Cl)ccc21 (stereo not given)	100	100	100	100
COc1ccc2nc(C)cc(Nc3ccccc3O)c2c1	100	100	100	100
CCn1nc(-c2ccc(C(=O)OC)cc2)nc2c(=O)n(C)c(=O)nc1-2	100	100	100	100
CC1(c2ccccc2)Nc2ccccc2-c2nc3ccccc3n21 (stereo not given)	100	100	100	100
COc1cccc(C2(C)Nc3ccccc3-c3nc4ccccc4n32)c1 (stereo not given)	100	100	100	100
CC(C)CNC(=O)c1c(N)n(CCc2ccccc2F)c2nc3ccccc3nc12	100	100	100	100
CC(C)(C)CC(C)(C)NCC(O)COc1ccc(Cl)cc1Cl (stereo not given)	100	100	100	100
O=C(Nc1ccc(Br)cc1)Nc1cccc(Cl)c1	100	100	100	100
CN(C)CCNc1cc(-c2ccccc2)nc2ccccc12	100	100	100	100
COc1ccc2nc(C)cc(Nc3ccc(Cl)cc3)c2c1	100	100	100	0
O=C(NC1CCN(Cc2ccccc2)CC1)c1cc(-c2ccncc2)nc2ccc(Cl)cc12	100	100	100	100
CCC(O)c1ccc(Br)cc1NC(=O)c1cccc(Cl)c1 (stereo not given)	100	100	100	100
COc1ccc2nc(C)cc(Nc3cccc(O)c3)c2c1.Cl	100	100	100	100
Cc1sc2ncnc(Sc3nc4ccccc4[nH]3)c2c1C	100	100	100	100
CC(=O)Nc1nnc(SCc2c(C)cc(C(C)(C)C)cc2C)s1	100	100	100	100
O=C(Nc1ccc(CN2CCOCC2)cc1)c1ccc(-c2cc(Cl)ccc2Cl)o1	100	100	100	100
Cc1cc(Nc2cccc(F)c2)nc(NCc2ccccc2)n1	100	100	100	33.33
CCOc1ccc(C2N(C)c3ccccc3N2C)cc1	100	100	100	100
COCCn1c(C)nc2ccccc2c1=O	100	100	100	100
O=C(Nc1cccc(-c2nc3ccccc3[nH]2)c1)c1cccc(NC(=O)c2ccco2)c1	100	100	100	100
O=C(NC1CCN(Cc2ccccc2)CC1)c1cc(-c2cccnc2)nc2ccc(Cl)cc12	100	100	100	100
CCN(Cc1ccccc1)C1CCN(Cc2cc(Br)ccc2O)CC1.O=C(O)C(=O)O	100	100	100	100
CCOc1cccc(C(=O)Nc2ccc(-c3nc4ccccc4[nH]3)cc2)c1	100	100	100	100
Cl.Clc1cc(Br)ccc1-c1ccc(CNCC2CCNCC2)o1	100	100	100	100

Compound	Motility [1] [%]	Motility [2] [%]	Motility [3] [%]	Motility [4] [%]
CCOc1ccccc1NC(=O)CN1CCN(C(=O)c2ccco2)CC1	100	100	100	100
COc1ccc(-c2nonc2NC(=O)c2cccc(Cl)c2)cc1OC	100	100	100	100
Cc1cc(NC(=O)c2ccc(-c3ccccc3)cc2)no1	100	100	100	100
CCOc1cc2c(cc1OCC)C(c1cc(C)c(O)c(C)c1)NCC2.Cl (stereo not given)	100	100	100	100
O=C1CC(O)(C(F)(F)C(F)(F)F)Oc2ccccc21 (stereo not given)	100	100	100	100
COc1cc(SC)ccc1C(=O)N1CCCC(C)C1 (stereo not given)	100	100	100	100
CC(C)c1ccc(CNCC(O)c2ccccc2)cc1.Cl (stereo not given)	100	100	100	100
OC(CNC1CCCC1)Cn1c2ccccc2c2ccccc21 (stereo not given)	100	100	100	100
Cc1ccc(NC(=O)Nc2cccc(Cl)c2)cc1F	100	100	100	100
O=C(O)C(=O)O.Oc1ccc(Br)cc1CN1CCN(Cc2cccc(F)c2)CC1	100	100	100	100
O=c1nc(C=Cc2ccc(Cl)cc2)oc2ccccc12	100	100	100	100
O=C(NCc1ccco1)C1CCN(S(=O)(=O)c2ccc(Br)cc2)CC1	100	100	100	100
CN(C)c1ccc(N2C(N)=NC(N)=NC2(C)C)cc1	100	100	100	100
COc1ccc(Nc2nc(NCc3ccccc3)c3ccccc3n2)cc1	100	100	100	33.33
COc1cc2c(cc1OC)C1=NNC(=O)C1=NC(C)(C)C2	100	100	100	100
Oc1c(CN2CCN(c3ccccc3F)CC2)cc(Br)c2cccnc12	100	100	100	66.66
Oc1c2c(nc3cc(-c4ccccc4)nn13)CCCC2	100	100	100	100
CCCCc1c(C)nc2c(OC)cccc2c1O	100	100	100	100
Clc1ccc2c(N3CCCC3)ccnc2c1	100	100	100	100
CCOC(=O)C1CCN(C(=O)CN2C(=O)c3ccccc3C2c2c[nH]c3ccccc23)CC1 (stereo not given)	100	100	100	100
CCOc1ccc(CCNC(=O)c2cccs2)cc1OCC	100	100	100	100
Cc1cc(N2CCN(C3CCCC3)CC2)n2c(nc3ccccc32)c1C#N	100	100	100	100
CCCCOc1ccc(C(=O)Nc2cc(C)on2)cc1	100	100	100	100
CCc1ccc(Nc2cc(C)nc3nc(C)nn23)cc1	100	100	100	100
Br.CCN(CC)S(=O)(=O)c1ccc(-c2csc(Nc3ccc(C)c(C)c3)n2)cc1	100	100	100	100
Cc1c(C)n(CC(O)CNC2CCCCC2C)c2ccccc12 (stereo not given)	100	100	100	100
CCCCN(CCCC)S(=O)(=O)c1ccc(NC(=O)c2ccco2)cc1	100	100	100	100
